Literature values, collected in Sander's compilation of Henry's law constants.
“And” between values parts separate entries of the source, which are not always exact repeats. Equal entries are not always repeated. Values belong to the compound of their own block, whether it stands above or below them.

Assay: Henry solubility constant Hcp at 298.15 K (mol/(m3 Pa))
Details: cited value
[1] = reference: Burkholder et al. (2015)
[2] = reference: Burkholder et al. (2019)
[3] = reference: Mackay et al. (1992b)
[4] = reference: Sander et al. (2011)
[5] = reference: Plyasunov et al. (2006)
[6] = reference: Wania and Dugani (2003)
[7] = reference: Barcelo and Hennion (1997)
[8] = reference: Murphy et al. (1983b)
[9] = reference: Liss and Slater (1974)
[10] = reference: Sander et al. (2006)
[11] = reference: Fogg and Sangster (2003)

SMILES: CCCCN [1-butanamine]
- Henry solubility constant Hcp (reference: Brockbank (2013)): 0.54
- Henry solubility constant Hcp [1]: 0.56
- Henry solubility constant Hcp [2]: 0.56

SMILES: COC(=O)c1ccccc1C(=O)OC [dimethyl phthalate]
- Henry solubility constant Hcp (reference: Brockbank (2013)): 51
- Henry solubility constant Hcp (reference: Goldstein (1982)): 29 and 30
- Henry solubility constant Hcp (reference: McCarty (1980)): 23

SMILES: Cc1ccc(O)c(C)c1 [1-hydroxy-2,4-dimethylbenzene]
- Henry solubility constant Hcp (reference: Brockbank (2013)): 3.5
- Henry solubility constant Hcp (reference: Goldstein (1982)): 4.1
- Henry solubility constant Hcp (reference: Howard (1989)): 16
- Henry solubility constant Hcp (reference: Petrasek et al. (1983)): 17

- Henry solubility constant Hcp [3]: 0.059
SMILES: c1ccc(CCc2ccccc2)cc1 [1,2-diphenylethane]

SMILES: O=C(O)CF [fluoroethanoic acid]
- Henry solubility constant Hcp [1]: 800
- Henry solubility constant Hcp [2]: 800
- Henry solubility constant Hcp [4]: 800

SMILES: N#CCCCCC#N [hexanedinitrile]
- Henry solubility constant Hcp [5]: 1500

SMILES: CCSCC [diethyl sulfide]
- Henry solubility constant Hcp [1]: 0.0035
- Henry solubility constant Hcp [2]: 0.0035

SMILES: Brc1ccc(Oc2ccc(Br)cc2)cc1 [4,4'-dibromodiphenyl ether]
- Henry solubility constant Hcp [6]: 0.24

- Henry solubility constant Hcp (reference: Brockbank (2013)): 0.27
SMILES: CCCCCCC(C)O (stereo not given) [2-octanol]

SMILES: CCOP(=S)(OCC)SCSP(=S)(OCC)OCC [ethion]
- Henry solubility constant Hcp [7]: 0.31

- Henry solubility constant Hcp (reference: Brockbank (2013)): 0.0028
SMILES: CC(C)SC(C)C [di-(2-propyl)-sulfide]

SMILES: Cc1cccc(C)c1N(Cn1cccn1)C(=O)CCl [metazachlor]
- Henry solubility constant Hcp [7]: 13

SMILES: OCC(F)(F)C(F)(F)F [2,2,3,3,3-pentafluoro-1-propanol]
- Henry solubility constant Hcp [1]: 0.14
- Henry solubility constant Hcp [2]: 0.14
- Henry solubility constant Hcp [4]: 0.14

SMILES: ClCC(Cl)(Cl)Cl [1,1,1,2-tetrachloroethane]
- Henry solubility constant Hcp (reference: Brockbank (2013)): 0.0042
- Henry solubility constant Hcp [1]: 0.0042
- Henry solubility constant Hcp [2]: 0.0042

- Henry solubility constant Hcp (reference: Brockbank (2013)): 15
SMILES: c1ccc2c(c1)-c1cccc3c1c-2cc1ccccc13 [benzo[b]fluoranthene]

- Henry solubility constant Hcp (reference: Brockbank (2013)): 0.22
SMILES: CCCCCCCCN [1-octanamine]

- Henry solubility constant Hcp (reference: Brockbank (2013)): 9.3e-09
SMILES: FC(F)(F)C(F)(F)C(F)(F)C(F)(F)C(F)(F)C(F)(F)F [tetradecafluorohexane]

SMILES: Clc1cc(Cl)c(-c2cc(Cl)c(Cl)cc2Cl)cc1Cl [2,2',4,4',5,5'-hexachlorobiphenyl]
- Henry solubility constant Hcp [8]: 0.028

SMILES: OCCCCO [1,4-butanediol]
- Henry solubility constant Hcp [1]: 35000
- Henry solubility constant Hcp [2]: 35000

- Henry solubility constant Hcp (reference: Brockbank (2013)): 2.3e-06
SMILES: CCCCCCCCC [nonane]

SMILES: ClC(Cl)(Cl)Cl [tetrachloromethane]
- Henry solubility constant Hcp (reference: Brockbank (2013)): 0.00035
- Henry solubility constant Hcp [1]: 0.00036
- Henry solubility constant Hcp [2]: 0.00036
- Henry solubility constant Hcp (reference: Dilling (1977)): 0.00046
- Henry solubility constant Hcp (reference: Goldstein (1982)): 0.00033
- Henry solubility constant Hcp (reference: Harrison et al. (1993)): 0.00038 and 0.00021
- Henry solubility constant Hcp [9]: 0.00037
- Henry solubility constant Hcp [10]: 0.00034
- Henry solubility constant Hcp [4]: 0.00034

SMILES: CO/N=C(/C(=O)OC)c1ccccc1CO/N=C(\C)c1cccc(C(F)(F)F)c1 [trifloxystrobin]
- Henry solubility constant Hcp (reference: MacBean (2012b)): 430

SMILES: O=[N+]([O-])c1ccccc1O [2-nitrophenol]
- Henry solubility constant Hcp (reference: Goldstein (1982)): 0.69

SMILES: O=C(Nc1ccccc1-c1ccc(Cl)cc1)c1cccnc1Cl [boscalid]
- Henry solubility constant Hcp (reference: MacBean (2012b)): 19000

SMILES: [O]N=O [nitrogen dioxide]
- Henry solubility constant Hcp [1]: 0.00012
- Henry solubility constant Hcp [2]: 0.00012
- Henry solubility constant Hcp [10]: 0.00014
- Henry solubility constant Hcp [4]: 0.00012
- Henry solubility constant Hcp (reference: Schwartz and White (1981)): 0.00012

SMILES: Clc1ccc2ccccc2c1 [2-chloronaphthalene]
- Henry solubility constant Hcp (reference: Goldstein (1982)): 0.016

SMILES: CON(C)C(=O)Nc1ccc(Cl)c(Cl)c1 [linuron]
- Henry solubility constant Hcp [7]: 1.8
- Henry solubility constant Hcp (reference: MacBean (2012b)): 5000

SMILES: Brc1ccc(Oc2cc(Br)c(Br)cc2Br)c(Br)c1 [2,2',4,4',5-pentabromodiphenyl ether]
- Henry solubility constant Hcp [6]: 1.9

- Henry solubility constant Hcp (reference: Palmer et al. (1985)): > 4.1
SMILES: OI [hypoiodous acid]

- Henry solubility constant Hcp (reference: Brockbank (2013)): 1.3
SMILES: CC(=O)Oc1ccccc1 [phenyl ethanoate]

SMILES: CCc1ccccc1 [ethylbenzene]
- Henry solubility constant Hcp (reference: Brockbank (2013)): 0.0013
- Henry solubility constant Hcp [11]: 0.0014
- Henry solubility constant Hcp (reference: Goldstein (1982)): 0.0016

- Henry solubility constant Hcp (reference: Brockbank (2013)): 0.0024
- Henry solubility constant Hcp [11]: 0.0027
SMILES: Cc1cccc(C)c1C [1,2,3-trimethylbenzene]

SMILES: CF [fluoromethane]
- Henry solubility constant Hcp (reference: Brockbank (2013)): 0.00062
- Henry solubility constant Hcp [1]: 0.00061
- Henry solubility constant Hcp [2]: 0.00061
- Henry solubility constant Hcp [10]: 0.00061
- Henry solubility constant Hcp [4]: 0.00061

SMILES: Clc1ccc(-c2ccc(Cl)cc2)cc1 [4,4'-dichlorobiphenyl]
- Henry solubility constant Hcp [8]: 0.033

SMILES: O=NN(c1ccccc1)c1ccccc1 [N-nitrosodiphenylamine]
- Henry solubility constant Hcp (reference: Mackay et al. (1995)): 0.015

- Henry solubility constant Hcp (reference: Brockbank (2013)): 0.0045
SMILES: CC(C)OC(C)C [diisopropyl ether]

SMILES: CCCO [1-propanol]
- Henry solubility constant Hcp (reference: Brockbank (2013)): 1.5
- Henry solubility constant Hcp [1]: 1.4
- Henry solubility constant Hcp [2]: 1.4
- Henry solubility constant Hcp (reference: Dohnal et al. (2006)): 1.4
- Henry solubility constant Hcp [11]: 1.4
- Henry solubility constant Hcp [10]: 1.3
- Henry solubility constant Hcp [4]: 1.4

SMILES: c1ccc2c(c1)oc1ccccc12 [dibenzofuran]
- Henry solubility constant Hcp (reference: Brockbank (2013)): 0.074
- Henry solubility constant Hcp [3]: 0.091

SMILES: CC(C)C [2-methylpropane]
- Henry solubility constant Hcp [1]: 9.1e-06
- Henry solubility constant Hcp [2]: 9.1e-06
- Henry solubility constant Hcp (reference: Hayduk (1986)): 9.1e-06
- Henry solubility constant Hcp [10]: 9.1e-06
- Henry solubility constant Hcp [4]: 9.1e-06

SMILES: O=[N+]([O-])c1ccc(Cl)cc1 [4-chloronitrobenzene]
- Henry solubility constant Hcp (reference: Brockbank (2013)): 0.64

SMILES: CCCCCCCBr [1-bromoheptane]
- Henry solubility constant Hcp (reference: Brockbank (2013)): 0.00022

- Henry solubility constant Hcp (reference: Brockbank (2013)): 0.76
SMILES: CCCCCCO [1-hexanol]

SMILES: Cc1ccc(C)cc1 [1,4-dimethylbenzene]
- Henry solubility constant Hcp (reference: Brockbank (2013)): 0.0014
- Henry solubility constant Hcp [11]: 0.0019
- Henry solubility constant Hcp (reference: Foster et al. (1994)): 0.0014

- Henry solubility constant Hcp (reference: Meynier et al. (2003)): 0.027
SMILES: CCCCC(=O)OCC [ethyl pentanoate]

- Henry solubility constant Hcp (reference: Brockbank (2013)): 2.6e-05
SMILES: CC1CCCCC1 [methylcyclohexane]

- Henry solubility constant Hcp (reference: Brockbank (2013)): 0.81
SMILES: CCNc1ccccc1 [(ethylamino)-benzene]

SMILES: CCC(C)n1c(=O)[nH]c(C)c(Br)c1=O (stereo not given) [bromacil]
- Henry solubility constant Hcp [7]: 5.2

- Henry solubility constant Hcp (reference: Brockbank (2013)): 0.02
SMILES: CCCCCCOC(C)=O [hexyl ethanoate]

SMILES: CI [iodomethane]
- Henry solubility constant Hcp (reference: Brockbank (2013)): 0.002
- Henry solubility constant Hcp [1]: 0.002
- Henry solubility constant Hcp [2]: 0.002
- Henry solubility constant Hcp [9]: 0.0017
- Henry solubility constant Hcp [10]: 0.002
- Henry solubility constant Hcp [4]: 0.002

- Henry solubility constant Hcp (reference: Brockbank (2013)): 0.00018
SMILES: CCCCCCCCc1ccccc1 [octylbenzene]

SMILES: CCN(CC)c1ccccc1 [(diethylamino)-benzene]
- Henry solubility constant Hcp (reference: Brockbank (2013)): 0.067

- Henry solubility constant Hcp (reference: Brockbank (2013)): 1.3
SMILES: COCCOC [1,2-dimethoxyethane]

SMILES: O=[N+]([O-])c1cccc(O)c1 [3-nitrophenol]
- Henry solubility constant Hcp (reference: Gaffney and Senum (1984)): 4900

SMILES: COP(=S)(OC)Oc1ccc([N+](=O)[O-])c(C)c1 [fenitrothion]
- Henry solubility constant Hcp [7]: 2.7

SMILES: CCCC [butane]
- Henry solubility constant Hcp [1]: 1.2e-05
- Henry solubility constant Hcp [2]: 1.2e-05
- Henry solubility constant Hcp (reference: Deno and Berkheimer (1960)): 1.1e-05
- Henry solubility constant Hcp (reference: Hayduk (1986)): 1.2e-05
- Henry solubility constant Hcp [10]: 1.2e-05
- Henry solubility constant Hcp [4]: 1.2e-05

- Henry solubility constant Hcp (reference: Brockbank (2013)): 0.00056
SMILES: C#CCC [1-butyne]

SMILES: CC(O)C(C)O (stereo not given) [2,3-butanediol]
- Henry solubility constant Hcp [1]: 1100
- Henry solubility constant Hcp [2]: 1100

SMILES: C=CC1(C)OC(=O)N(c2cc(Cl)cc(Cl)c2)C1=O (stereo not given) [vinclozoline]
- Henry solubility constant Hcp [7]: 7.6

SMILES: Cc1ccccc1C [1,2-dimethylbenzene]
- Henry solubility constant Hcp (reference: Brockbank (2013)): 0.002
- Henry solubility constant Hcp [11]: 0.0024

SMILES: Nc1c(Cl)c(Cl)nc(C(=O)O)c1Cl [picloram]
- Henry solubility constant Hcp [7]: 290

- Henry solubility constant Hcp (reference: Clever (1979b)): 4.3e-05
SMILES: [Xe] [xenon]

- Henry solubility constant Hcp (reference: Howard (1993)): 25
SMILES: OCc1ccccc1 [(hydroxymethyl)-benzene]

- Henry solubility constant Hcp (reference: Brockbank (2013)): 2.4e-05
SMILES: C/C=C/CCCC [trans-2-heptene]

SMILES: CC(C)=CC1C(C(=O)OCc2cccc(Oc3ccccc3)c2)C1(C)C (stereo not given) [phenothrin]
- Henry solubility constant Hcp (reference: MacBean (2012b)): 1.5

SMILES: CCOC(=O)CCl [ethyl chloroethanoate]
- Henry solubility constant Hcp (reference: Brockbank (2013)): 0.26

SMILES: CCCCCC#N [hexanenitrile]
- Henry solubility constant Hcp [5]: 0.12

SMILES: CC(=O)C(C)(C)C [3,3-dimethyl-2-butanone]
- Henry solubility constant Hcp (reference: Brockbank (2013)): 0.043

SMILES: CC(=O)CF [1-fluoro-2-propanone]
- Henry solubility constant Hcp [1]: 0.46
- Henry solubility constant Hcp [2]: 0.46

SMILES: CC(Cc1ccc(C(C)(C)C)cc1)CN1C[C@@H](C)O[C@@H](C)C1 (stereo not given in full) [fenpropimorph]
- Henry solubility constant Hcp [7]: 0.062

- Henry solubility constant Hcp (reference: Brockbank (2013)): 5.9e-06
SMILES: CCC(C)CC [3-methylpentane]

SMILES: CCOCC [diethyl ether]
- Henry solubility constant Hcp (reference: Brockbank (2013)): 0.0099
- Henry solubility constant Hcp [1]: 0.02
- Henry solubility constant Hcp [2]: 0.0099

- Henry solubility constant Hcp (reference: Brockbank (2013)): 2.6e-06
SMILES: CCCCC(C)CC (stereo not given) [3-methylheptane]

SMILES: OCC(O)CO [1,2,3-propanetriol]
- Henry solubility constant Hcp [1]: 4.7e+06
- Henry solubility constant Hcp [2]: 4.7e+06

- Henry solubility constant Hcp (reference: Brockbank (2013)): 0.82
SMILES: CC(C)CCO [3-methyl-1-butanol]

SMILES: CNC(=O)Oc1cccc2c1OC(C)(C)C2 [carbofuran]
- Henry solubility constant Hcp [7]: 19

- Henry solubility constant Hcp (reference: Brockbank (2013)): 0.005
SMILES: CCOC(C)(C)CC [2-ethoxy-2-methylbutane]
